From ChEMBL document CHEMBL3639215, “Piperazine compound having a PGDS inhibitory effect” (2014) come the findings set out here.

For this test, the target named is Hematopoietic prostaglandin D synthase (Homo sapiens, UniProt O60760). The test is described as follows: Inhibiting Action: The test was carried out according to the method of Urade, Y. et al. (J. Biol. Chem., 262, 3820-3825, (1987)). More specifically, the reaction mixture (49 μL) containing 100 mM Tris-HCl (pH 8.0), 1 mM reduced glutathione, 0.1 mg/mL γ-globulin, and human H-PGDS (q.s.), and a compound (final concentration: 0.01-100 μM) was preincubated at 25C. for 5 minutes. A DMSO solution (final concentration: 1%) was added to the solvent control group. Subsequently, 1 μL of [14C] prostaglandin H2 (final concentration: 10 μM) was added to start the reaction. One minute after the start of the reaction, 250 μL of a reaction stop solution (diethylether/methanol/1 M citric acid (30/4/1) at a temperature of −20C. was added to stop the reaction. After the reaction was stopped, 50 μL of the upper-layer portion (organic solvent layer) was applied to a TLC plate and developed at −20C. for 45 minutes (developing solvent: diethylether/methanol/acetic acid (90/2/1)).
Chain of Hematopoietic prostaglandin D synthase (O60760 whole entry): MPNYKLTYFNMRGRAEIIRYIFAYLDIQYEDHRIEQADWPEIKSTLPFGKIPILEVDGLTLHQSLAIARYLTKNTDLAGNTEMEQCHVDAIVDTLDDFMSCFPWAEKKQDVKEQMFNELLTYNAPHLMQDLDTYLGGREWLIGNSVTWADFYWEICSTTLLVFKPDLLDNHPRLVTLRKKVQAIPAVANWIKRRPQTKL
Usually IC50 stands for the concentration that gives 50% inhibition. On to `Cn1ccc(C(=O)N2CCN(C(=O)NC3CCN(c4ccc(C(=O)NCCN5CCOCC5)cc4)CC3)CC2)c1`, for which the concentration for half-maximal inhibition (IC50) is greater than 1000 nM.

Turning to `O=C(NCCN1CCOCC1)c1ccc(N2CCC(NC(=O)N3CCN(C(=O)c4ccco4)CC3)CC2)cc1`, the IC50 turned out to be 445 nM.

As for `O=C(NCCN1CCOCC1)c1ccc(N2CCC(NC(=O)N3CCN(C(=O)c4ccsc4)CC3)CC2)cc1`, the IC50 turned out to be 327 nM.

`Cc1cc(C)c(C(=O)N2CCN(C(=O)NC3CCN(c4ccc(C(=O)NCCN5CCOCC5)cc4)CC3)CC2)[nH]1`: the IC50 was greater than 1000 nM.

In the case of `Cn1ccnc1C(=O)N1CCN(C(=O)NC2CCN(c3ccc(C(=O)NCCN4CCOCC4)cc3)CC2)CC1`, the IC50 is greater than 1000 nM.

As for `O=C(NCCN1CCOCC1)c1ccc(N2CCC(NC(=O)N3CCN(C(=O)c4ccno4)CC3)CC2)cc1`, the IC50 is greater than 1000 nM.

In the case of `Cc1ccc2nc(NC(=O)N3CCN(C(=O)c4cccc(F)c4)CC3)sc2c1`, the 50% inhibitory concentration (IC50) amounted to 260 nM.

For `O=C(NCCN1CCOCC1)c1ccc(N2CCC(NC(=O)N3CCN(C(=O)c4cccs4)CC3)CC2)cc1`, the concentration for half-maximal inhibition (IC50) worked out at 201 nM.

Turning to `Cc1cc2nc(NC(=O)N3CCN(C(=O)c4cccc(F)c4)CC3)sc2cc1C`, the IC50 was determined as 222 nM.

For `COc1ccc2nc(NC(=O)N3CCN(C(=O)c4cccc(F)c4)CC3)sc2c1`, the half-maximal inhibitory concentration (IC50) came to 318 nM.

In the case of `O=C(Nc1nc2ccc(Br)cc2s1)N1CCN(C(=O)c2cccc(F)c2)CC1`, the half-maximal inhibitory concentration (IC50) is 106 nM.

Turning to `O=C(NCCN1CCOCC1)c1ccc(N2CCC(NC(=O)N3CCN(C(=O)c4ccc[nH]4)CC3)CC2)cc1`, the IC50 is 334 nM.

Consider `O=C(NCCN1CCOCC1)c1ccc(N2CCC(NC(=O)N3CCN(C(=O)c4ccoc4)CC3)CC2)cc1`, for which the concentration for half-maximal inhibition (IC50) was greater than 1000 nM.

As for `O=C(NCCN1CCOCC1)c1ccc(N2CCC(NC(=O)N3CCN(C(=O)C4CCCC4)CC3)CC2)cc1`, the IC50 is greater than 1000 nM.

With `O=C(NCCN1CCOCC1)c1ccc(N2CCC(NC(=O)N3CCN(C(=O)c4ccccc4)CC3)CC2)cc1`, the half-inhibitory concentration (IC50) came out at 249 nM.

With `O=C(Nc1nc2ccc(Cl)cc2s1)N1CCN(C(=O)c2cccc(F)c2)CC1`, the IC50 was found to be 204 nM.
